Experimental data taken from US6750213B2, “Estrogen receptor modulators” (Merck & Co., Inc., priority 2000, dated 2004).

Tested on: MCF-7 cells
Assay: MCF-7 Estrogen Dependent Proliferation Assay
Assay type: cell-based
Details: Homo sapiens, MCF7, addition to Estrogen Depleted Media (EDM), read-out: EC50 of stimulation of growth of MCF-7 cells
Description: MCF-7 cells (ATCC #HTB-22) are human mammary gland adenocarcinoma cells that require estrogen for growth. The growth media (GM) for the MCF-7 cells is Minimum Essential Media (without phenol red) supplemented with fetal bovine serum(FBS) to 10%. The FBS serves as the sole source of estrogen and this GM supports the full growth of the cells and is used for the routine growth of the cell cultures. When MCF-7 cells are placed in a media in which 10% Charcoal-Dextran treated fetal bovine serum (CD-FBS) is substituted for FBS, the cells will cease to divide but will remain viable. […] The addition of estradiol to EDM stimulates the growth of the MCF-7 cells in a dose dependent manner with an EC50 of 2 pM. Growing MCF-7 cells are washed several times with EDM and the cultures then maintained in EDM for a minimum of 6 days in order to deplete the cells of endogenous estrogen. […] At this point, the culture supernatants are aspirated, the cells washed 2×with PBS, the wash solution aspirated and the protein content of each well determined. Each drug dilution is evaluated on a minimum of 5 wells and the range of dilution of the test compounds in the assay is […] to 1000 nM. […] The assay is terminated at day 8-10 when the appropriate controls reach 80-90% confluency and the protein content of each well is determined as above.

Q: `C[C@]12CC[C@@H]3c4ccc(O)cc4CC[C@H]3[C@@H]1CC[C@@H]2O` [estradiol] was tested. Which EC50 did it give?
A: Its EC50 is 2 pM.
